Legend:
[1] = tested on: Schaffer collateral (SC)-CA1 synapses; assay: LTP recordings on horizontal hippocampal slices (fEPSP amplitude after high-frequency stimulation); format: in vivo, mice; conditions: for LTP at SC-CA1 synapses: daily oral Verubecestat 3 mg/kg or Lanabecestat 0.5 mg/kg for 2-4 months; for potentiation at 30 minutes post-stimulation: slices from 4-6-month-old WT mice, Lanabecestat 0.5 mg/kg or Verubecestat 3 mg/kg, control slices 245.9±0.9864%
Protocol: (§1) C57BL/6 mice of either sex (4-6 months of age; n=6 per group) received vehicle or BACE1 inhibitors, Lanabecestat (AZD3293) solution at 0.25 mg/kg or 0.5 mg/kg) via oral gavage (Eketjall et al., 2016b). For Verubescstat, 3mg/kg dose was used and delivered orally via gavage (Kennedy et al., 2016). Treatment usually last 2-4 months. The mGluR1 positive allosteric modulator Ro0711401 at 10 mg/kg was given as intraperitoneal injections (IP) 1 hour before decapitation for LTP experiments (Notartomaso et al., 2013). For behavioral assays, Ro0711401 was deliver via IP injection at 12-hour intervals for 6-8 weeks. The mGluR1/5 positive allosteric modulator CHPG was mixed in aCSF and used during recording LTP. The drug was applied in a bath during baseline recording for at least for 30 minutes before HFS stimulation was applied and LTP was recorded (Le Duigou and Kullmann, 2011).
Acute brain slices were prepared as previously described (Hu et al., 2018). Briefly, the mice were decapitated and the brains were immersed in low-calcium artificial cerebrospinal fluid (aCSF) containing (in mM): 125 NaCl, 2.5 KCl, 10 glucose, 25 NaHCO3, 1.25 NaH2PO4, 0.4 L-ascorbic acid, 3 myo-inositol, 2 Na-pyruvate, 3 MgCl2 and 0.1 CaCl2 continuously bubbled with 95% O2 and 5% CO2 (pH≈7.3). Animals were decapitated with a guillotine and the brain was quickly removed to an ice-cold aCSF chamber with constant bubbling of 95% O2 and 5% CO2. Acute horizontal brain slices containing the hippocampus were obtained using a Campden 7000 smz-2 vibratome from 4-7-month-old mice at 350 μm thick. Slices were immediately transferred to an incubation beaker containing normal aCSF (same as the low-calcium aCSF except that 1 mM MgCl2 and 1, 1.2, or 2 mM CaCl2 were used) at 30° C., continuously bubbled with 95% O2 and 5% CO2. Slices were allowed to recover for 1 hour and then were transferred to an MED-64 recording chamber with the same aCSF solution at ≈30° C., maintained by MED ThermoConnector (Automate Scientific) with continuous aCSF perfusion at 2 ml/min.
LTP recordings on hippocampal slices were performed according to previously-described procedures (Shimono et al., 2002; Baba et al., 2003; Itoh et al., 2005). Upon obtaining horizontal hippocampal slices from the brains of mice, the prepared slices were then placed onto the center of an MED probe (MED-P515A; AutoMate™ Scientific) with continuous perfusion of aCSF and bubbling of 95% O2 and 5% CO2. The device has an array arranged in an 8×8 pattern of 64 planar microelectrodes across a hippocampal slice. Each electrode is 20×20 μm with an interelectrode distance of 150 μm. A MED-A64HE1S head amplifier and a MED-A64MD1 main amplifier, run by Mobius software, were used for data acquisition and analysis. SCs to CA1 synapses were typically analyzed for LTP assays. fEPSPs caused by stimulation were recorded at a 20-kHz sampling rate within the CA1 subregion of the hippocampus. Control fEPSPs were recorded for at least 10 min before the conditioning stimulation, using a response ˜50% of the maximum. After a stable baseline was established, LTP was induced with three trains of 100 Hz for 1 s with an intertrain interval F of 20 s. Field potential amplitudes were then measured. Data are expressed as mean±SEM. Synaptic strength was evaluated by measuring changes in the fEPSP amplitude relative to baseline. Statistics were calculated by Student's t tests.

[2] = cited from earlier work
[3] = tested on: mice (WT BACE1+/+ or BACE1-null); assay: Open field test; format: in vivo
Protocol: (§2) Treatment usually last 2-4 months. […] For behavioral assays, Ro0711401 was deliver via IP injection at 12-hour intervals for 6-8 weeks. The mGluR1/5 positive allosteric modulator CHPG was mixed in aCSF and used during recording LTP.
Each subject was released in the middle of the arena and observed for 10 minutes. Performance in the open field was recorded by a computer-based video tracking system (Any maze™ software, San Diego instruments, USA). Activity measures included distance traveled, percentage of time spent in corners vs. the center of the arena, and speed of movement during active exploration. The number of entries to the central zone of the open field was also recorded. Statistics were calculated by Student's t tests.

[4] = tested on: synaptic proteins PSD95, mGluR2, Synaptophysin in synaptosome fraction; assay: Western analysis of synaptic proteins in synaptosomes from treated animals; format: in vivo, mice; conditions: chronic treatment, Lanabecestat 0.5 mg/kg or Verubecestat 3 mg/kg
Protocol: as §1
Synaptosome isolation was performed using Thermo Scientific Syn-PER Synaptic Protein Extraction Reagent (cat #87793) from whole brain samples. Briefly, mice were sacrificed by live decapitation, and rapidly dissected hippocampi were homogenized in Syn-Per reagent, ˜1 ml/100 mg tissue. Samples were then centrifuged at 1200×g for 10 min. The resulting supernatant was then centrifuged at 15,000×g for 20 min. Pellets (synaptosomes) were resuspended in buffer B ([…] in 6 mm Tris, pH 8.0) with 1% SDS, briefly sonicated, and frozen in −80° C. Total protein extraction was performed according to previously-described procedures (Hu et al., 2007). Brain samples were homogenized in radioimmunoprecipitation assay (RIPA) buffer (50 mM Tris-HCl, pH 7.4, 1% NP-40, 0.25% sodium deoxycholate, 150 mM NaCl, 1 mM EDTA, 1 mM NaF, 1 mM Na3VO4, and a protease inhibitor cocktail [Roche]) and centrifuged at 13,200 rpm for 90 min. Equal amounts of protein were resolved on a NuPAGE Bis-Tris gel (Invitrogen) and transferred onto nitrocellulose membranes (Invitrogen). Subsequently, blots were incubated with primary antibodies 1:1,000 mGluR1 [AB_12551; Cell Signaling]; 1:1,000 PSD-95 [AB_36233; Cell Signaling]; 1:5,000 GluR1 [AB_05-855; Upstate]; 1:1,000 GluR2/3 [AB_07-598; Upstate]; 1:1,000 GluR4 [AB_06-308; Upstate]; 1:1,000 Homer [AB_8231; Cell Signaling]; 1:500 TMEM25 [AB_24361-1-AP; ProteinTech Group]; 1:1,000 Bassoon [AB_141021; Synaptic Systems]; 1:10,000 Actin [AB_A5441; Sigma], overnight at 4° C. After extensive washing, blots were reacted with HRP-conjugated secondary antibodies and visualized using enhanced chemiluminescence (Thermo Scientific).

[5] = tested on: WT (BACE1+/+) mice; assay: Fear conditioning studies; format: in vivo; conditions: Lanabecestat 0.5 mg/kg or Verubecestat 3 mg/kg, N=10
[6] = tested on: mice (WT BACE1+/+ or BACE1-null); assay: Y maze spontaneous alternation task; format: in vivo
Source text: as §2
The symmetrical Y maze made of acrylic consists of three arms separated by 120 degrees. Each arm is 40 cm long, 17 cm high, 4 cm wide at the bottom and 13 cm wide at the top. Each mouse was placed in the center of the Y maze and was allowed to explore freely through the maze during a 5 min session. The sequence and total number of arms entered was recorded. Arm entry was considered to be completed when the hind paws of the mouse had been completely placed in the arm. Percentage of alternations is the number of triads containing entries into all three arms divided by the maximum possible alternations (the total number of arms entered minus 2)×100. Statistics were calculated by Student's t tests.

[7] = tested on: mice (WT BACE1+/+ or BACE1-null); assay: Morris water maze; format: in vivo
Protocol: as §2
The Morris water maze test was used to assess cognitive impairment. The apparatus consisted of a white circular tank (120 cm in diameter and 40 cm deep) filled with warm water (22° C.). The water was made to appear opaque using white nontoxic paint. A transparent platform (8 cm in diameter) was located in the middle of the southwest quadrant. Mice were subjected to four consecutive trials each day over a 3-day training period (with a flag attached to the platform) and then again for 5 days (no flag attached to platform) and the platform was submerged 0.5 cm below the water surface. Each mouse was released from four different positions around the perimeter of the tank (north, northwest, east, and southeast). In each trial, every mouse was allowed to swim until it found the platform (for a maximum of 60 s) and was subsequently left on the platform for 20 s between trials. If the platform was not found in 60 s, the mouse was guided to the platform and remained there for 20 s. The escape latency to find the hidden platform was automatically recorded using a video tracking system (Any-maze, San Diego instruments). At the end of the training on the eighth day, a probe test was conducted for […] on the 9th day. The platform was removed; each was released from the northeast quadrant and was allowed to swim for 60 s. Memory retention was measured by quantifying the time spent in the target quadrant, the number of entries made into the southwest quadrant, and the number of crossings over the previous platform location. Statistics were calculated by Student's t tests. Values are expressed as mean±SEM.

[8] = 12 months old BACE1+/+ mice, ~50 days
[9] = WT mice, Lanabecestat 0.5 mg/kg ~2 months (FIG. 6)
[10] = WT mice, Lanabecestat 0.5 mg/kg or Verubecestat 3 mg/kg for ~2 months (FIG. 6)
[11] = BACE1-null mice, 10 mg/kg i.p. every 12 hours, vs mock treatment

In the case of `NC(C(=O)O)c1cc(O)ccc1Cl` (racemic) [CHPG, (RS)-2-Chloro-5-hydroxyphenylglycine], the “LTP response vs mock treated slices” value ([1]; BACE1-null slices pre-treated with 125 nM for 30 min) is reported as “significantly improved”, the “LTP response vs mock treatment” value ([1]; CHPG bath on slices from WT mice treated with Lanabecestat 0.5 mg/kg for 60 days) is reported as “slightly improved” and the “LTP response vs mock treatment” value ([1]; CHPG bath on slices from WT mice treated with Verubecestat 3 mg/kg for 60 days) is reported as “markedly improved”. The brain penetrability [2] was “non-brain penetrable”.

In the case of `CC#Cc1cncc(-c2ccc3c(c2)[C@@]2(N=C(C)C(N)=N2)[C@]2(CC[C@@H](OC)CC2)C3)c1` [Lanabecestat], the “distance traveled on the open field, BACE1 inhibitor alone” value [3, 8] is reported as “traveled more distances”, the “speed on the open field, BACE1 inhibitor alone” value [3, 8] is reported as “faster” and the “stay in the corner of the open field area vs mock-treated controls” value ([3]; BACE1 inhibitor alone, ~50 days) is reported as “stayed more in the corner”. The speed [3, 9] was “clear increase”, the total distance covered [3, 9] was “clear increase” and the “exploratory behaviors, time in corners vs center” value ([3]; WT mice, ~2 months treatment (FIG. 6)) was “less exploratory behaviors”. The “PSD95 level in synaptosome fraction” value [4] was “significant decrease”, the “Synaptophysin level in synaptosome fraction” value [4] was “significant decrease” and the “mGluR2 level in synaptosome fraction” value [4] was “significant decrease”. The “freezing time, contextual phase” value [5] was “significant reduction”, the “freezing time, cue phase” value [5] was “significant reduction” and the “total entry, BACE1 inhibitor alone” value [6, 8] was “more significant”. The “% of spontaneous alteration, BACE1 inhibitor alone vs mock treatment” value ([6]; 12 months old BACE1+/+ mice, ~50 days, Verubecestat 3 mg/kg or Lanabecestat 0.5 mg/kg oral, not statistically significant) was “reduction”, the “number of arm entries” value [6, 10] was “clearly reduced” and the spontaneous alternations [6, 10] was “clearly reduced”. The “LTP reduction at lower dose” value ([1]; WT mice, Lanabecestat 0.25 mg/kg, compared with 0.5 mg/kg) was “significantly weaker LTP reduction”, the “LTP at SC-CA1 synapses” value ([1]; WT mice) was “strongly suppressed” and the “potentiation at 30 minutes post-stimulation” value [1] was 105.6±0.6137%. The brain penetrability [2] was “brain-penetrable”.

In the case of `O=C(Nc1nc(C(F)(F)F)co1)C1c2ccccc2Oc2ccccc21` [Ro0711401, N-[4-(trifluoromethyl)-1,3-oxazol-2-yl]-9H-xanthene-9-carboxamide], the “time spent in the center of the open field” value ([3]; BACE1-null mice after the treatment) is reported as “more time spent in the center”, the “average speed in the open field arena” value [3, 11] is reported as “lowered” and the “total distance covered in the open field arena” value [3, 11] is reported as “lowered”. The “number of entries made to the platform quadrant” value ([7]; 9th day probe, BACE1-null treated, WT 6.364±0.5094, BACE1-null 3.700±0.5385) was 4.900±0.6403, the “time to reach the platform, habituation day 3” value ([7]; BACE1-null+Ro0711401 mice, BACE1-null 31.56±3.432 s, WT 8.098±1.318 s) was 18.20 ± 3.203 s and the “time to reach the platform, habituation day 1” value ([7]; BACE1-null+Ro0711401 mice, BACE1-null 41.32±3.131 s, WT 21.99±2.986 s) was 24.88 ± 2.935 s. For the same compound, the “average distance covered to reach the platform over the trials” value ([7]; habituation and training phases, BACE1-null 3.872±0.7645, WT 1.205±0.2805) was 1.909±0.3878 meters, the “average duration to reach the platform of untreated BACE1-null mice relative to BACE1-null mice treated with Ro0711401” value ([7]; training phase, 5 days, submerged platform, all trial days) was “significantly higher” and the “total numbers of arm entries (entrance performance)” value ([6]; BACE1-null mice, 10 mg/kg i.p. every 12 hours, about 45 days) was “improved entrance performance”. The “changes in percentage of spontaneous alternation among groups” value ([6]; WT, BACE1-null and BACE1-null with Ro0711401) was “not obvious”, the “LTP from acutely-sectioned brain slices vs vehicle” value ([1]; 4-6 month old BACE1-null mice, 10 mg/kg i.p. one hour before sacrifice) was “significantly enhanced” and the “LTP after chronic treatment” value ([1]; BACE1-null mice, Ro0711401 10 mg/kg i.p. every 12 hours for about two months, after the behavioral tests) was “significantly elevated to the level close to that of WT mice”. For the same compound, the brain penetrability [2] was “brain-penetrable”.

In the case of `CN1C(N)=N[C@](C)(c2cc(NC(=O)c3ccc(F)cn3)ccc2F)CS1(=O)=O` [Verubecestat], the “PSD95 level in synaptosome fraction” value [4] is reported as “significant decrease”, the “Synaptophysin level in synaptosome fraction” value [4] is reported as “significant decrease” and the “mGluR2 level in synaptosome fraction” value [4] is reported as “significant decrease”. For the same compound, the “LTP at SC-CA1 synapses” value ([1]; WT mice) was “significantly reduced”, the “potentiation at 30 minutes post-stimulation” value [1] was 113.1±1.353% and the brain penetrability [2] was “brain-penetrable”.
